Measurements as given in US10450305B2, “LKB1-AMPK activators for therapeutic use in polycystic kidney disease” (The University of Kansas, priority 2014, dated 2019).

Assays:
AMPK [1] = test: P-AMPK levels in kidneys of wild type mice after i.p. dosing; assay type: in vivo, mouse; conditions: wild type mice, 5, 10 or 25 mg/kg i.p. once per day for 4 days, two hours after last dose, compared to vehicle
Procedure: (§1) Normal mice were given BIT-11 at 5, 10 or 25 mg/kg body weight by daily intraperitoneal injection for 4 days. BIT-11 was delivered at 20% DMSO and 80% corn oil. Two hours after the last injection, the mice were sacrificed and the kidneys were snap-frozen and stored at −80 degree C., until tissue lysates were prepared. Tissues were homogenized in a lysis buffer containing detergent and protease and phosphatase inhibitors. Proteins were resolved by SDS PAGE and detected by immunoblot using P-AMPK and AMPK antibodies.
(§2) Another study included dosing wild type mice with BIT-11 once per day for 4 days and measured P-AMPK levels in the kidneys two hours after the last dose.

Pkd1 mutant kidneys = test: Ex vivo cyst formation in Pkd1-/- embryonic kidneys in metanephric organ culture; parameters: species or system mouse; conditions: 10 μM, 100 μM 8-Br-cAMP, E15.5 kidneys, 4 days in culture
Procedure: FIG. 6 includes images that show the effect of BIT-11 on cyst-like tubule expansions in Pkd1 mutant kidneys. Kidneys were harvested from Pkd1 mutant (Pkd1^−/−) mice at embryonic day 15.5 (E15.5) and placed on permeable cell culture inserts. The kidneys were bathed in media containing 100 μM 8-Bromo-adenosine 3′,5′-cyclic monophosphate (cAMP) to stimulate mural epithelial cell proliferation and Cl^−-dependent fluid secretion, key factors in cyst formation. Images of kidneys were captured using a digital camera connected to a dissecting microscope and cystic area was monitored for 4 days. cAMP induced the formation of cyst-like dilations in Pkd1^−/− kidneys that progressively enlarged over 4 days in culture.

[2] = Tolerability in wild type mice; assay type: in vivo; conditions: mice, 5, 10 and 25 mg/kg i.p., once per day for 4 days
Procedure: as §1, §2

ADPKD cell monolayers [3] = test: cAMP-induced Cl- secretion (short circuit current) across ADPKD cell monolayers; assay type: cell-based, human; conditions: 10 μM for 24 hours, FSK 10 μM, n=10 pairs of monolayers
Procedure: (§3) We designed and synthesized a small molecule LKB1 activator BIT-11 by incorporating an oxadiazole moiety into a unique 3-substituted 2H-chromene derivative. The effects of BIT-11 on phosphorylated AMPK (P-AMPK) and S6 kinase (P-S6K), a downstream target of mTOR, were determined by western blot analysis. To test the drug's effect on Cl^− transport, ADPKD monolayers were incubated in the absence and presence of BIT-11 and then treated with forskolin, a cAMP agonist. Changes in Cl^− transport were measured by short circuit current. For in vitro cyst growth assays, ADPKD cells were seeded within a collagen matrix and treated with EGF and forskolin±BIT-11, and total surface area of cysts per well was calculated from individual cyst diameters.
FIG. 5A-5B show the effect of BIT-11 on cAMP-induced Cl^− secretion by ADPKD cell monolayers. ADPKD cells were grown as polarized monolayers on permeable Snapwell supports. […] ADPKD monolayers were mounted in Ussing chambers and treated with 10 μM benzamil to block the Na^+ current prior to the experiment. FSK (10 μM), a potent cAMP agonist, was added to maximally stimulate anion secretion.

AMPK [4] = test: Western blot of phosphorylated AMPK (P-AMPK/AMPK) in ADPKD cells; assay type: cell-based, human; conditions: for phosphorylation of AMPK: 100 nm, 24 h; for rank order of the effect on AMPK phosphorylation: western blot
Procedure: as §3, with “diameters. […] The numbers above blots indicate P-AMPK/AMPK normalized to control. […] ADPKD cells were treated with BIT129, BIT130, and BIT131 (e.g., 100 nm) for 24 h, then cell lysates were prepared. […] The rank order of the effect of the new drugs on AMPK phosphorylation was BIT-131>BIT-130>BIT-129.” for “diameters.”

human ADPKD cells [5] = test: In vitro cyst growth of ADPKD cells within a collagen matrix; assay type: cell-based; conditions: 5 μM forskolin and 5 ng/ml EGF, cysts diameter ≥50 μm
Procedure: as §3
Cells were seeded in PureCol Type I collagen and stimulated to form cysts with 5 μM forskolin (FSK) and 5 ng/ml epidermal growth factor (EGF) for 3 days. […] FIG. 4A includes representative images of individual wells.

human ADPKD cells [6] = test: Proliferation of human ADPKD cells (automated cell count); assay type: cell-based; conditions: 10 to 1000 nM, 48 h, 0.05% fetal bovine serum
Excerpt: Cells were counted using an automated cell counter.

S6 kinase (S6K) = test: Western blot of phosphorylated S6 kinase (P-S6K/S6K), downstream target of mTOR, in ADPKD cells; assay type: cell-based, human; conditions: 24 hours, control media 0.05% fetal bovine serum
Procedure: as §3, with “diameters. […] The numbers above blots indicate P-AMPK/AMPK normalized to control. […] ADPKD cells were treated with BIT129, BIT130, and BIT131 (e.g., 100 nm) for 24 h, then cell lysates were prepared. […] The rank order of the effect of the new drugs on AMPK phosphorylation was BIT-131>BIT-130>BIT-129.” for “diameters.”

ADPKD cell monolayers [7] = conditions: found previously, selective CFTR inhibitor; cited from earlier work
[8] = in vivo; cited from earlier work

O=C(O)c1ccc(-c2noc(C3=Cc4cc(Cl)cc(Cl)c4OC3c3ccccc3)n2)cc1 (stereo not drawn) [BIT-11]
P-AMPK levels in the kidneys (AMPK [1]): markedly increased P-AMPK levels in the kidneys
cyst formation in Pkd1-/- kidneys (Pkd1 mutant kidneys): nearly eliminated cyst formation
tolerability [2]: well tolerated
cAMP-induced Cl- secretion (steady-state short circuit current) (ADPKD cell monolayers [3]): a decrease in cAMP-induced Cl^− secretion
effect on P-AMPK/AMPK (AMPK [4]; ADPKD cells, BIT-11 at 10 nM, 100 nM and 1,000 nM, 24 hours): can promote phosphorylation of AMPK increasingly with increasing amounts
biological activity compared with AMPK activator Metformin (AMPK [4]; comparison with Metformin): much better efficacy
total cyst surface area (in vitro cyst growth) (human ADPKD cells [5]): can inhibit cyst proliferation
effect on proliferation of human ADPKD cells (human ADPKD cells [6]): increasingly inhibit proliferation of ADPKD cells
effect on P-S6K/S6K (S6 kinase (S6K)): can inhibit phosphorylation of S6K increasingly at increasing amounts

CC1(C)OB(c2ccc(-c3noc(C4=Cc5cc(Cl)cc(Cl)c5OC4c4ccccc4)n3)cc2)OC1(C)C (stereo not drawn) [BIT-129]
phosphorylation of AMPK (AMPK [4]; ADPKD cells): can promote phosphorylation of AMPK
rank order of the effect on AMPK phosphorylation (AMPK [4]; ADPKD cells): BIT-131>BIT-130>BIT-129

OB(O)c1ccc(-c2noc(C3=Cc4cc(Cl)cc(Cl)c4OC3c3ccccc3)n2)cc1 (stereo not drawn) [BIT-130]
phosphorylation of AMPK (AMPK [4]; ADPKD cells): can promote phosphorylation of AMPK
rank order of the effect on AMPK phosphorylation (AMPK [4]; ADPKD cells): BIT-131>BIT-130>BIT-129

O=C(O)c1ccc(/C=C2\SC(=S)N(c3cccc(C(F)(F)F)c3)C2=O)cc1 [CFTRinh-172]
anion current across ADPKD monolayers (ADPKD cell monolayers [7]): completely blocked

CN(C)C(=N)N=C(N)N [Metformin]
eliminated by renal excretion [8]: ~80%
